Data as given in patent US4851411A, “5-monoaryl as.-triazin-3-ones substituted in 2-position, and their use as medicaments” (Pierre Fabre Medicament, priority 1986, dated 1989).
Where a name gives a salt, the structure may show the parent alone.

Assay: Solubility
Type: physicochemical

SMILES | solubility in alcohols in the hot (alcohols, in the hot) | solubility in benzene | solubility in chloroform (chloroform) | solubility in dilute aqueous bases (dilute aqueous bases) | solubility in ether | solubility in water | solubility in methylene chloride (methylene chloride) | solubility in aqueous dilute acids in the hot (in the hot) | solubility in alcohols (alcohols) | solubility in chloroform in the hot (chloroform, in the hot) | solubility in methylene chloride in the hot (methylene chloride, in the hot)
CC(=O)Cn1ncc(-c2ccc(O)cc2)nc1=O [Example 2, 2-N-acetonyl 3-oxo 5-p-hydroxyphenyl as.-triazine] | Soluble in the hot, recrystallizes in the cold | Insoluble | Insoluble | soluble | Insoluble | rather soluble | – | – | – | – | –
CC(=O)Cn1ncc(-c2ccc(OC3CCOC3=O)cc2)nc1=O (stereo not drawn) [Example 3, 2-acetonyl 3-oxo 5-p-(alphaoxy γ butryolactone)phenyl as.-triazine] | – | Insoluble | Insoluble | – | Insoluble | Insoluble | – | – | – | – | –
COc1ccc(-c2cnn(CC(=O)C(C)C)c(=O)n2)cc1 [Example 5, 2-(3'-methyl 2'-one butyl) 3-oxo 5-p-methoxyphenyl as.-triazine] | – | poorly soluble | Soluble | – | poorly soluble | Insoluble | Soluble | – | – | – | –
CC(=O)Cn1ncc(-c2ccc(C)cc2)nc1=O [Example 6, 2-acetonyl 3-oxo 5-p-methylphenyl as.-triazine] | – | – | Soluble | – | insoluble | insoluble | Soluble | – | – | – | –
CC(=O)Cn1ncc(-c2ccccc2)nc1=O [Example 7, 2-acetonyl 3-oxo 5-phenyl as.-triazine] | – | – | Soluble | – | insoluble | insoluble | Soluble | – | – | – | –
COc1ccc(-c2cnn(CCN3CCN(c4cccc(Cl)c4)CC3)c(=O)n2)cc1 [Example 10, 2 β ethyl(metachlorophenyl)piperazine 3-oxo 5-p-methoxyphenyl as.-triazine] | – | – | Poorly soluble | – | – | – | Poorly soluble | Soluble | – | – | –
CC(=O)c1ccc(N2CCN(CCCn3ncc(-c4ccc(C)cc4)nc3=O)CC2)cc1 [Example 11, 2-γ propyl p-piperazinoacetophenone 3-oxo 5-methylphenyl as.-triazine] | Soluble | – | – | – | insoluble | insoluble | – | – | insoluble | Soluble | Soluble
COc1ccc(C2C=NN(CCCN3CCN(c4cccc(Cl)c4)CC3)C(=O)N2)cc1 (stereo not drawn) [Example 12, 2-N-γ propyl(m-chlorophenylpiperazine) 3-oxo 4,5-dihydro 5-p-methoxyphenyl as.-triazine] | Soluble | – | Soluble | – | insoluble | insoluble | Soluble | Soluble | – | – | –
Cc1ccc(-c2cnn(CCCCN3CCN(c4cccc(Cl)c4)CC3)c(=O)n2)cc1 [Example 13, 2-N-δ butyl (m-chlorophenyl piperazine) 3-oxo 5-p-methylphenyl as.-triazine] | Soluble | – | Soluble | – | insoluble | insoluble | Soluble | Soluble | – | – | –
Cc1ccc(-c2cnn(CCCN3CCN(c4cccc(Cl)c4)CC3)c(=O)n2)cc1 [Example 14, 2-γ(m-chlorophenylpiperazine)-propyl 3-oxo 5-p-methylphenyl as.-triazine hydrochloride] | – | – | Soluble | – | insoluble | insoluble | Soluble | – | – | – | –
